Results taken from publication PMC7782793, “Hydroxamic acid-modified peptide microarrays for profiling isozyme-selective interactions and inhibition of histone deacetylases” (Nature Communications, 2021).
Where “and” joins values, the source holds several entries; their conditions need not be identical. Equal values may be shown once. Marks after values point to notes of the source that are not given here. Non-standard residues stand in square brackets, D forms with d. Residues, ends and D or L forms follow the SMILES beside them. *: point of attachment. Asu = N[C@@H](CCCCCC(=O)O)C(=O)O; NHOH = ON*

Key:
HDAC8 [1] = target: T1, HDAC8 (Homo sapiens, UniProt Q9BY41); test: HDAC inhibition assay (fluorogenic, Ac-Leu-Gly-Lys(Tfa)-AMC); assay type: biochemical; conditions: for HDAC8 dose-response data (relative enzyme activity, replicate values), Fig. 6 + S. Fig. 10: two replicate columns per inhibitor; for HDAC8 dose-response data (relative enzyme activity), Fig. 6 + S. Fig. 10: duplicate columns
T1 construct: HDAC8 (full length, C-terminal His tag, BPS Bioscience, cat. #: 50008); purchased BPS Bioscience 50008
T1 sequence (Q9BY41 1-377): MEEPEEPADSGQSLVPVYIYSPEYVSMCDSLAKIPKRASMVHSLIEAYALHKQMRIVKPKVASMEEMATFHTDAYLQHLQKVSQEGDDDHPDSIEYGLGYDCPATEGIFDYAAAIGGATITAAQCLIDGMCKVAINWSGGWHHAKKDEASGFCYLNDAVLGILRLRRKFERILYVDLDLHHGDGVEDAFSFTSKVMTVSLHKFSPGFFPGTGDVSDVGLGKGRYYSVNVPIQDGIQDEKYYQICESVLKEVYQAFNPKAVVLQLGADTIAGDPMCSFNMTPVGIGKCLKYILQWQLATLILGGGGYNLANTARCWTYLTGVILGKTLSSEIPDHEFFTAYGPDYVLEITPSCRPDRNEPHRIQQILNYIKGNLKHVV

HDAC3/NCoR2 [2] = target: T2, HDAC3/NCoR2 (Homo sapiens, UniProt O15379); test: Recombinant HDAC µSPOT microarray binding assay;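 note: peptide spots on cellulose slides incubated with rising HDAC enzyme concentrations, imaged together, four-parameter logistic fit, EC50 is enzyme concentration giving half-maximal binding signal, two experiments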
T2 construct: HDAC3/NCoR2 (full length, C-terminal His tag, NCoR2 N-terminal GST tag); purchased BPS Bioscience 50003

HDAC1 = target: T3, HDAC1 (Homo sapiens, UniProt Q13547); test: HDAC inhibition assay (fluorogenic, Ac-Leu-Gly-Lys(Ac)-AMC); assay type: biochemical; conditions: for HDAC1 dose-response data (relative enzyme activity), Fig. 6 + S. Fig. 10: duplicate columns
T3 construct: HDAC1 (full length, C-terminal His tag, C-terminal FLAG tag, BPS Bioscience, cat. #: 50051); FLAG (C); purchased BPS Bioscience 50051

HDAC8 [3] = target: T1, HDAC8; test: Recombinant HDAC µSPOT microarray binding assay;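 note: peptide µSPOT slides incubated with varying HDAC enzyme concentrations, imaged signal intensity fitted by four-parameter variable-slope regression, EC50 is enzyme concentration giving half-maximal binding, pH 7.4 HEPES buffer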
Description: Experiments were performed twice, data were obtained with Array Analyze software (Active Motif), and data analysis and representation were performed with the GraphPad Prism 7 software. Outliers were curated manually and data were fitted to nonlinear regression [log(agonist) vs. response—variable slope (four parameters)]. […] Non-sigmoidal curves were denoted as not determined (N.D.) The pEC50 values were determined as the concentration of HDAC enzyme required for half-maximal binding signal.

HDAC3/NCoR2 [4] = target: T2, HDAC3/NCoR2; test: HDAC inhibition assay (fluorogenic, Ac-Leu-Gly-Lys(Ac)-AMC); assay type: biochemical

T3 sequence (Q13547 whole entry): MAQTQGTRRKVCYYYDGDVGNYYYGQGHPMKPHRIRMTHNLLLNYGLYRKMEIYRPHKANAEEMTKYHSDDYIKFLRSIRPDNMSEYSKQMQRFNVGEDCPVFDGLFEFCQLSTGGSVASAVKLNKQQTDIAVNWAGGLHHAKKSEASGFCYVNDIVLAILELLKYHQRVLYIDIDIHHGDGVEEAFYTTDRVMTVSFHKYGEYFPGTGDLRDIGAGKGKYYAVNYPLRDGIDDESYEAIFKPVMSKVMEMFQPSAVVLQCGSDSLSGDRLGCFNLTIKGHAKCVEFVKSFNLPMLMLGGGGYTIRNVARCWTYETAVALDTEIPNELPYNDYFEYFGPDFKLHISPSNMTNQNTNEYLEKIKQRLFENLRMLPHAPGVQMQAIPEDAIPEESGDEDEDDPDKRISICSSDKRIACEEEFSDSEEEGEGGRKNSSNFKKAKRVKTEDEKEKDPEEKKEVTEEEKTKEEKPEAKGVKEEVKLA
T2 sequence (O15379 whole entry): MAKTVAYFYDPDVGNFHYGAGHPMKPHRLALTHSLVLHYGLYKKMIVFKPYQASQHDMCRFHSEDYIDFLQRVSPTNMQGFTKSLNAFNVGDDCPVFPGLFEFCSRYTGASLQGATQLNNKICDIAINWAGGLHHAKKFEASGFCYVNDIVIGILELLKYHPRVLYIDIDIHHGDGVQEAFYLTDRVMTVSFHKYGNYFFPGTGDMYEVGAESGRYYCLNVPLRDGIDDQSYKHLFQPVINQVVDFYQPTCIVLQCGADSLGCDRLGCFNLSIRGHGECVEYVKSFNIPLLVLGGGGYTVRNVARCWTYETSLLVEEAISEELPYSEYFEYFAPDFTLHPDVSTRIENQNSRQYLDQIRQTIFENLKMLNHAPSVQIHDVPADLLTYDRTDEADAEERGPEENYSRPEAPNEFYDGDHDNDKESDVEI
T2 sequence (Q9Y618 389-480 partner limits assumed): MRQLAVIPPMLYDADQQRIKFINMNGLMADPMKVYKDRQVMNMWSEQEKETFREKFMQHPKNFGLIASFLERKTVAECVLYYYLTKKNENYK

CC[C@H](C)[C@H](NC(=O)[C@H](CCC(=O)O)NC(=O)[C@H](CCCNC(=N)N)NC(=O)[C@H](CO)NC(=O)[C@@H](NC(=O)[C@@H](NC(=O)[C@@H](NC(=O)[C@H](CO)NC(=O)[C@H](CCCNC(=N)N)NC(=O)[C@H](CCCCCC(=O)NO)NC(=O)[C@H](CC(N)=O)NC(=O)[C@H](Cc1ccc(O)cc1)NC(=O)[C@H](Cc1c[nH]cn1)NC(C)=O)[C@@H](C)O)[C@@H](C)CC)[C@@H](C)O)C(=O)N[C@@H](CCC(N)=O)C(=O)N[C@H](C(=O)N[C@@H](C)C(=O)N[C@@H](Cc1c[nH]c2ccccc12)C(N)=O)[C@@H](C)O [12a] (Ac-HYN[Asu](NHOH)RSTITSREIQTAW-NH2)
Ki (HDAC8 [1]): 672 ± 2 nM
HDAC8 dose-response data (relative enzyme activity, replicate values), Fig. 6 + S. Fig. 10 (HDAC8 [1]; Inhibitor conc [M] -8.49485 (log)): 96.596 and 95.5531
HDAC8 dose-response data (relative enzyme activity, replicate values), Fig. 6 + S. Fig. 10 (HDAC8 [1]; Inhibitor conc [M] -9.19382 (log)): 96.9206 and 97.7957
HDAC8 dose-response data (relative enzyme activity, replicate values), Fig. 6 + S. Fig. 10 (HDAC8 [1]; Inhibitor conc [M] given as -7.09691 (log)): 89.149 and 90.0695
HDAC8 dose-response data (relative enzyme activity, replicate values), Fig. 6 + S. Fig. 10 (HDAC8 [1]; Inhibitor conc [M] given as -7.79588 (log)): 96.5655 and 96.7922
HDAC8 dose-response data (relative enzyme activity, replicate values), Fig. 6 + S. Fig. 10 (HDAC8 [1]; Inhibitor conc [M] given as -9.89279 (log)): 97.4718 and 97.8478
HDAC8 dose-response data (relative enzyme activity, replicate values), Fig. 6 + S. Fig. 10 (HDAC8 [1]; Inhibitor conc [M] given as -10.585 (log)): 100,321515* and 100,605272*
HDAC8 dose-response data (relative enzyme activity), Fig. 6 + S. Fig. 10 (HDAC8 [1]; Inhibitor conc [M] -4.30103): 4.131 and 3.99
HDAC8 dose-response data (relative enzyme activity), Fig. 6 + S. Fig. 10 (HDAC8 [1]; Inhibitor conc [M] -5): 13.2204 and 13.7487
HDAC8 dose-response data (relative enzyme activity), Fig. 6 + S. Fig. 10 (HDAC8 [1]; Inhibitor conc [M] -5.69897): 34.8849 and 37.2156
HDAC8 dose-response data (relative enzyme activity), Fig. 6 + S. Fig. 10 (HDAC8 [1]; Inhibitor conc [M] -6.39794): 67.169 and 68.3219
EC50 (HDAC3/NCoR2 [2]): 2.57 nM
Ki (HDAC1): 27.1 ± 0.1 nM
HDAC1 dose-response data (relative enzyme activity), Fig. 6 + S. Fig. 10 (HDAC1; log[inhibitor(M)] -4.30103): 0.9347 and 0.662
HDAC1 dose-response data (relative enzyme activity), Fig. 6 + S. Fig. 10 (HDAC1; log[inhibitor(M)] -5): 2.038 and 1.878
HDAC1 dose-response data (relative enzyme activity), Fig. 6 + S. Fig. 10 (HDAC1; log[inhibitor(M)] -5.69897): 7.98 and 7.034
HDAC1 dose-response data (relative enzyme activity), Fig. 6 + S. Fig. 10 (HDAC1; log[inhibitor(M)] -6.39794): 27.0557 and 22.8999
HDAC1 dose-response data (relative enzyme activity), Fig. 6 + S. Fig. 10 (HDAC1; log[inhibitor(M)] -7.09691): 60.7171 and 55.9643
HDAC1 dose-response data (relative enzyme activity), Fig. 6 + S. Fig. 10 (HDAC1; log[inhibitor(M)] -7.79588): 89.3741 and 84.8138
HDAC1 dose-response data (relative enzyme activity), Fig. 6 + S. Fig. 10 (HDAC1; log[inhibitor(M)] -8.49485): 97.3199 and 95.6638
HDAC1 dose-response data (relative enzyme activity), Fig. 6 + S. Fig. 10 (HDAC1; log[inhibitor(M)] -9.19382): 101.477 and 97.552
HDAC1 dose-response data (relative enzyme activity), Fig. 6 + S. Fig. 10 (HDAC1; log[inhibitor(M)] -9.89279): 101.081 and 96.9441
HDAC1 dose-response data (relative enzyme activity), Fig. 6 + S. Fig. 10 (HDAC1; log[inhibitor(M)] -10,5850266520292*, whole line marked with asterisks): 100,220716* and 99,6623992*
EC50 (HDAC8 [3]): > 25.1 nM
Ki (HDAC3/NCoR2 [4]): 10.6 ± 0.1 nM
HDAC3 dose-response data (relative enzyme activity), Fig. 6 + S. Fig. 10 (HDAC3/NCoR2 [4]; log[inhibitor(M)] -4.30103, duplicate columns): 0.7368 and 0.5682
